Results reported in patent publication US20240208930A1, “CRYSTALLINE FORM OF SPHINGOSINE-1-PHOSPHATE RECEPTOR AGONIST” (LG CHEM, LTD., priority 2021, published 2024).
“Also recorded” adds a separate entry of the source.

Columns and labels:
[1] = DVS (dynamic vapor sorption); type: physicochemical
Method: Moisture sorption/desorption data were collected on a DVS Intrinsic instrument (Surface Measurement Systems). Samples were not dried prior to analysis. Sorption and desorption data were collected over the range of 5% to 95% RH with 10% RH increments under nitrogen. The equilibrium criterion used in the analysis was less than 0.0100% change in weight in 5 minutes with a maximum equilibration time of 3 hours. Data on the initial moisture content of the samples were not corrected. The results are represented in FIG. 6.

[2] = Stability test (XRPD, naked eye observation, HPLC) after storage under accelerated and severe conditions; type: physicochemical
Method: To investigate the stability of Crystalline Form A, after storage for 2 weeks under accelerated (40° C./75% RH) and severe (80° C.) conditions, the physical stability was confirmed by naked eye observation and XRD measurement (FIG. 7), and chemical stability was confirmed by the analysis of the sample purity using HPLC (Table 3). HPLC equipment and analysis methods are represented in Table 1.
A stability test was carried out in the same manner as in Example 2. • (5) Results

[3] = severe condition (80° C.), 2 weeks

SMILES	XRPD pattern of the solid retrieved after DVS [1]	change in the crystal form in XRPD ([2]; 2 weeks, accelerated (40° C./75% RH) and severe (80° C.) conditions)	physical/chemical stability ([2]; 2 weeks, accelerated (40° C./75% RH) and severe (sealed state, 80° C.) conditions)	time physically stable ([2]; 80° C.)	sample purity using HPLC ([2]; Accelerated condition (40° C./75% RH), 1 week)	sample purity using HPLC ([2]; Accelerated condition (40° C./75% RH), 2 weeks)	sample purity using HPLC ([2]; Accelerated condition (40° C./75% RH), 3 days)	sample purity using HPLC ([2]; Initial)	sample purity using HPLC ([2]; Severe condition (80° C.), 1 week)	sample purity using HPLC ([2]; Severe condition (80° C.), 3 days)	naked eye observation ([2]; after 2 weeks of severe condition (80° C.))	amount of impurities in the sample [2, 3]	sample purity using HPLC [2, 3]
CC(C)n1nc(Cl)c2cc(COc3ccc4c(c3)CCC(CN3CCC(C(=O)O)CC3)=C4Cl)ccc21 [Crystalline Form A, 1-[1-chloro-6-(3-chloro-1-isopropyl-1H-indazol-5-ylmethoxy)-3,4-dihydro-naphthalen-2-ylmethyl]-piperidine-4-carboxylic acid]	XRPD patterns similar to the initial ones	no change in the crystal form	physically/chemically stable; also recorded: physical/chemical stability was confirmed	–	–	–	–	–	–	–	–	–	–
CC(C)n1nc(Cl)c2cc(COc3ccc4c(c3)CCC(CN3CCC(C(=O)O)CC3)=C4Cl)ccc21 [amorphous form, 1-[1-chloro-6-(3-chloro-1-isopropyl-1H-indazol-5-ylmethoxy)-3,4-dihydro-naphthalen-2-ylmethyl]-piperidine-4-carboxylic acid]	–	–	–	at least 2 weeks	98.1%	98.8%	98.8%	100.7%	87.2%	90.7%	free-flowing particles that were broken when struck and bubble-like yellow masses	increased	77.3%
